Results taken from patent US20090305894A1, “use of sulfonanilides as herbicide” (priority 2005, published 2009).

Tests used:
Type in all cases: in vivo
Veronica persica = test: Herbicidal effect on weeds in dry field, spraying treatment to stems and leaves after sprouting (Test Example 5, Table 13); details: 80 g ai/ha, rated after 3 weeks
Experimental: (§1) The formulations of active compounds were obtained as emulsions by mixing 1 part by weight of the active compound with the carrier and emulsifier in the described amounts. The formulations were diluted with water so as to adjust a prescribed dosage.
(§2) In a greenhouse seeds of rice (cultivar: Balilla) and weeds (Brachiaria plantaginea, Cyperus esculntus, Cyperus iria L., Echinochloa colonum, Leptochloa chinensis, Ipomoea purpurea, and Sesbania exaltata) were inoculated on the surface layers of pots filled with 100 cm^2 of paddy field soil and covered with soil. Water was poured to produce wet state (water level 0 cm). The prescribed diluted solutions of the formulations of the respective active compounds obtained in the same manner as in Test Example 1 were sprayed on the soil of some pots on completion of the seeding and the solutions of the agents were sprayed over the plants from the above in the rest of the pots after the respective sample plants were grown in first- to third-1 eaf stage in the greenhouse. After one day from the treatment with the compound, water was poured in 3 cm depth. The herbicidal effects and herbicide damage on rice of the respective compounds were investigated after 3 weeks from the treatment. The herbicidal effect and herbicide damage on the rice were rated as 100% in the case of complete withering and 0% in the case of no herbicidal effect or no harm. When herbicidal effect was 80% or higher, it was determined to be practically applicable as herbicides. When the herbicide damage was 20% or lower, the safety of the herbicide was evaluated to be excellent.
(§3) In a green house one seed each of crops in dry field (Triticum aestivum) and weeds (Veronica persica and Viola mandshurica) were inoculated in the surface layer in one pot filled with 16 cm^2 of dry field soil and covered with soil. After the sample plants were grown to second- and third-leaf stages at the greenhouse, the prescribed diluted solutions of the formulations of the respective active compounds obtained in the same manner as in Test Example 1 were sprayed over the plants from the above. The herbicidal effect and herbicide damage on crops of the respective compounds were investigated after 3 weeks from the treatment. Evaluations of the herbicidal effect and herbicide damage were carried out in the same manner as in Test Example 3.

Viola mandshurica = test: as above; details: 80 g ai/ha, rated after 3 weeks
Experimental: as §1, §2, §3

Glycine max = test: Herbicide damage to crops in dry field, spraying treatment on soil before sprouting (Test Example 4, Table 12); details: 80 g ai/ha, rated after 3 weeks
Experimental: as §1, §2
(§4) In a greenhouse one seed each of crops in dry field (Triticum aestivum and Glycine max) and weeds (Echinochloa crus-gali and Setaria vividis) were inoculated in the surface layer in one pot filled with 16 cm^2 of dry field soil and covered with soil. The prescribed diluted solutions of the formulations of the respective active compounds obtained in the same manner as in Test Example 1 were sprayed to the soil upon the inoculation. The herbicidal effect and herbicide damage on crops of the respective compounds were investigated after 3 weeks from the treatment. Evaluations of the herbicidal effect and herbicide damage were carried out in the same manner as in Test Example 3. As the representative example, the test results of compound No. 1 and 24, and the comparative compound C-1 are shown in Table 12.

Triticum aestivum [1] = test: as above; details: 80 g ai/ha, rated after 3 weeks
Experimental: as §1, §2, §4

Setaria vividis = test: Herbicidal effect on weeds in dry field, spraying treatment on soil before sprouting (Test Example 4, Table 12); details: 80 g ai/ha, spraying to soil before sprouting, rated after 3 weeks
Experimental: as §1, §2, §4

Echinochloa crus-gali = test: as above; details: 80 g ai/ha, spraying to soil before sprouting, rated after 3 weeks
Experimental: as §1, §2, §4

Triticum aestivum [2] = test: Herbicide damage to crops in dry field, spraying treatment to stems and leaves after sprouting (Test Example 5, Table 13); details: 80 g ai/ha, rated after 3 weeks
Experimental: as §1
as §2, with “The herbicidal effects and herbicide damage on rice of the respective compounds were investigated after 3 weeks from the treatment. The herbicidal effect and herbicide damage on the rice were rated as 100% in the case of complete withering and 0% in the case of no herbicidal effect or no harm.” left out, “excellent. […]” for “excellent.”

rice (cultivar: Balilla) [3] = test: Irrigated directly seeded paddy rice, herbicide damage, spraying to soil before sprouting (Test Example 3, Table 10); details: 20 g ai/ha, rated after 3 weeks
Experimental: as §1, §2

rice (cultivar: Balilla) [4] = test: Irrigated directly seeded paddy rice, herbicide damage, spraying to stems and leaves after sprouting (Test Example 3, Table 11); details: 20 g ai/ha, rated after 3 weeks
Experimental: as §1, §2

Sesbania exaltata [5] = test: Irrigated directly seeded paddy rice, herbicidal effect, spraying to soil before sprouting (Test Example 3, Table 10); details: 20 g ai/ha, rated after 3 weeks
Experimental: as §1, §2

Cyperus esculntus [6] = test: as above; details: 20 g ai/ha, rated after 3 weeks
Experimental: as §1, §2

Leptochloa chinensis [7] = test: as above; details: 20 g ai/ha, rated after 3 weeks
Experimental: as §1, §2

Echinochloa colonum [8] = test: as above; details: 20 g ai/ha, rated after 3 weeks
Experimental: as §1, §2

Cyperus iria L. [9] = test: as above; details: 20 g ai/ha, rated after 3 weeks
Experimental: as §1, §2

Ipomoea purpurea [10] = test: as above; details: 20 g ai/ha, rated after 3 weeks
Experimental: as §1, §2

Brachiaria plantaginea [11] = test: as above; details: 20 g ai/ha, rated after 3 weeks
Experimental: as §1, §2

[12] = test system: Scirpus juncoides Roxburgh (resistant to sulfonylurea type herbicide); test: Herbicidal efficacy test to weeds resistant to sulfonylurea type herbicide (Test Example 1, applied on water surface, Table 8); details: 60 g ai/ha, applied on water surface at beginning of sprouting, rated after 3 weeks; 100% = complete withering, 0% = no effect
Experimental: (§5) Preparation of formulation of active compound
(§6) Carrier: DMF 5 parts by weight
(§7) Emulsifier: benzyloxypolyglycol ether 1 part by weight
as §1
(§8) In a greenhouse respective seeds of Scirpus juncoides Roxburgh (from Hokkaido, Japan) and Lindernia procumbens Philcox (from Saitama, Japan), which are confirmed to have resistance to a sulfonylurea type herbicide, were inoculated in pots filled with 500 cm^2 of paddy field soil and water was poured to the pot in about 2 to 3 cm depth. At the beginning of sprouting of the weeds, prescribed diluted solutions of the formulations of the respective active compounds obtained by the above-mentioned manner were applied on the water surface. After the treatment water depth of 3 cm was kept. The herbicidal effect was investigated after 3 weeks of the treatment. The herbicidal effect was rated as 100% in the case of complete withering and 0% in the case of no herbicidal effect. When the herbicidal effect was 80% or higher, the practical effectiveness as herbicides is recognized. As the representative examples, the test results of the compound Nos. 1, 3, 4, 5, 6, 7, 13, 70, 127, 128 and 130 are shown in Table 8.

Sesbania exaltata [13] = test: Irrigated directly seeded paddy rice, herbicidal effect, spraying to stems and leaves after sprouting (Test Example 3, Table 11); details: 20 g ai/ha, rated after 3 weeks
Experimental: as §1, §2

Cyperus esculntus [14] = test: as above; details: 20 g ai/ha, rated after 3 weeks
Experimental: as §1, §2

Leptochloa chinensis [15] = test: as above; details: 20 g ai/ha, rated after 3 weeks
Experimental: as §1, §2

Echinochloa colonum [16] = test: as above; details: 20 g ai/ha, rated after 3 weeks
Experimental: as §1, §2

Cyperus iria L. [17] = test: as above; details: 20 g ai/ha, rated after 3 weeks
Experimental: as §1, §2

Ipomoea purpurea [18] = test: as above; details: 20 g ai/ha, rated after 3 weeks
Experimental: as §1, §2

Brachiaria plantaginea [19] = test: as above; details: 20 g ai/ha, rated after 3 weeks
Experimental: as §1, §2

[20] = test system: Lindernia procumbens Philcox (resistant to sulfonylurea type herbicide); test: Herbicidal efficacy test to weeds resistant to sulfonylurea type herbicide (Test Example 1, applied on water surface, Table 8); details: 60 g ai/ha, applied on water surface at beginning of sprouting, rated after 3 weeks; 100% = complete withering, 0% = no effect
Experimental: as §5, §6, §7, §1, §8

COc1cc(OC)nc(C(O)c2cccc(F)c2NS(=O)(=O)C(F)(F)F)n1 (stereo not drawn) [C-1, reference compound]
20%: Herbicide damage Glycine max (Glycine max)
0%: Herbicide damage Triticum aestivum (Triticum aestivum [1]) | Herbicidal effect Setaria vividis (Setaria vividis) | Herbicidal effect Echinochloa crus-gali (Echinochloa crus-gali) | Herbicide damage Triticum aestivum (Triticum aestivum [2])
30%: Herbicidal effect Viola mandshurica (Viola mandshurica)
60%: Herbicidal effect Veronica persica (Veronica persica)

COc1nc(OC)nc(C(=O)c2cccc(F)c2N(C)S(=O)(=O)C(F)F)n1 [Compound No. 1]
100%: Herbicidal effect Sesbania exaltata (Sesbania exaltata [5]) | Herbicidal effect Cyperus esculntus (Cyperus esculntus [6]) | Herbicidal effect Leptochloa chinensis (Leptochloa chinensis [7]) | Herbicidal effect Echinochloa colonum (Echinochloa colonum [8]) | Herbicidal effect Cyperusiria L. (Cyperus iria L. [9]) | Herbicidal effect to sulfonylurea resistant weeds: Scirpus juncoides Roxburgh (from Hokkaido) [12] | Herbicidal effect Sesbania exaltata (Sesbania exaltata [13]) | Herbicidal effect Cyperus esculntus (Cyperus esculntus [14]) | Herbicidal effect Echinochloa colonum (Echinochloa colonum [16]) | Herbicidal effect Cyperusiria L. (Cyperus iria L. [17]) | Herbicidal effect Brachiaria plantaginea (Brachiaria plantaginea [19])
20%: Herbicide damage on Rice (rice (cultivar: Balilla) [3]) | Herbicide damage on Rice (rice (cultivar: Balilla) [4]) | Herbicide damage Glycine max (Glycine max)
90%: Herbicidal effect Ipomoea purpurea (Ipomoea purpurea [10]) | Herbicidal effect Ipomoea purpurea (Ipomoea purpurea [18]) | Herbicidal effect Echinochloa crus-gali (Echinochloa crus-gali)
80%: Herbicidal effect Brachiaria plantaginea (Brachiaria plantaginea [11]) | Herbicidal effect Leptochloa chinensis (Leptochloa chinensis [15]) | Herbicidal effect Setaria vividis (Setaria vividis)
0%: Herbicide damage Triticum aestivum (Triticum aestivum [1])

COc1cc(OC)nc(C(Cl)c2cccc(F)c2NS(=O)(=O)C(F)F)n1 (stereo not drawn) [compound 13]
100%: Herbicidal effect Veronica persica (Veronica persica) | Herbicidal effect Viola mandshurica (Viola mandshurica) | Herbicidal effect to sulfonylurea resistant weeds: Scirpus juncoides Roxburgh (from Hokkaido) [12] | Herbicidal effect to sulfonylurea resistant weeds: Lindernia procumbens Philcox (from Saitama pref.) [20]
0%: Herbicide damage Triticum aestivum (Triticum aestivum [2])
